In ChEMBL document CHEMBL6078667, “Synthesis, Biological Evaluation, and Mechanistic Insights of Rubrolide Analogues as Antitumor Agents” (J Nat Prod, 2024):
pIC50: −log10 of the molar value.

Tested on: U-87 MG
Experiment: Cytotoxicity against human U-87 MG cells assessed as survival rate at 10 uM measured after 72 hrs by MTT assay relative to control
Type: functional, U-87MG ATCC
Settings: read-out: Survival

Compound | viability at 10 µM
COc1ccc(C2=CC(=O)O/C2=C\c2ccc(O)c(O)c2)cc1 | 51.9%
CC(=O)Nc1ccc(/C=C2\OC(=O)C=C2c2ccccc2)cc1 | 90.3%
COc1ccc(C2=CC(=O)O/C2=C\c2ccccc2)cc1 | 52%
COc1cccc2c1C(=O)c1c(O)c3c(c(O)c1C2=O)C[C@@](O)(C(=O)CO)C[C@@H]3O[C@H]1C[C@H](N)[C@H](O)[C@H](C)O1 [DOXORUBICIN] | 20.3%
COc1ccc(C2=CC(=O)O/C2=C\c2ccc(C(C)(C)C)cc2)cc1 | 109%
COc1ccc(C2=CC(=O)O/C2=C\c2ccc3ccccc3c2)cc1 | 106%
O=C1C=C(c2ccccc2)/C(=C/c2ccc(C(=O)O)cc2)O1 | 96.5%
COc1ccc(C2=CC(=O)O/C2=C\c2ccc(NC(C)=O)cc2)cc1 | 39.2%
COc1ccc(/C=C2\OC(=O)C=C2c2ccc(OC)cc2)cc1 | 39.1%
O=C1C=C(c2ccccc2)/C(=C/c2ccc3[nH]ccc3c2)O1 | 103%
COc1ccc(C2=CC(=O)O/C2=C\c2ccc(Br)cc2)cc1 | 103%
Cc1ccc(/C=C2\OC(=O)C=C2c2ccccc2)cc1 | 101%
COc1cc(/C=C2\OC(=O)C=C2c2ccccc2)ccc1O | 99.8%

Tested on: HCT-116
Experiment: Cytotoxicity against human HCT-116 cells assessed as survival rate at 10 uM measured after 72 hrs by MTT assay relative to control
Type: functional
Settings: read-out: Survival

Compound | viability at 10 µM
COc1ccc(C2=CC(=O)O/C2=C\c2ccc(O)c(O)c2)cc1 | 31.7%
CC(=O)Nc1ccc(/C=C2\OC(=O)C=C2c2ccccc2)cc1 | 87.2%
COc1ccc(C2=CC(=O)O/C2=C\c2ccccc2)cc1 | 32.5%
COc1cccc2c1C(=O)c1c(O)c3c(c(O)c1C2=O)C[C@@](O)(C(=O)CO)C[C@@H]3O[C@H]1C[C@H](N)[C@H](O)[C@H](C)O1 [DOXORUBICIN] | 12.2%
COc1ccc(C2=CC(=O)O/C2=C\c2ccc(C(C)(C)C)cc2)cc1 | 98.9%
COc1ccc(C2=CC(=O)O/C2=C\c2ccc3ccccc3c2)cc1 | 98.3%
O=C1C=C(c2ccccc2)/C(=C/c2ccc(C(=O)O)cc2)O1 | 105%
COc1ccc(C2=CC(=O)O/C2=C\c2ccc(NC(C)=O)cc2)cc1 | 32.5%
COc1ccc(/C=C2\OC(=O)C=C2c2ccc(OC)cc2)cc1 | 26.5%
O=C1C=C(c2ccccc2)/C(=C/c2ccc3[nH]ccc3c2)O1 | 98.9%
COc1ccc(C2=CC(=O)O/C2=C\c2ccc(Br)cc2)cc1 | 107%
Cc1ccc(/C=C2\OC(=O)C=C2c2ccccc2)cc1 | 104%
COc1cc(/C=C2\OC(=O)C=C2c2ccccc2)ccc1O | 137%

Tested on: MCF7
Experiment: Cytotoxicity against human MCF7 cells assessed as survival rate at 10 uM measured after 72 hrs by MTT assay relative to control
Type: functional
Settings: read-out: Survival

Compound | viability at 10 µM
COc1ccc(C2=CC(=O)O/C2=C\c2ccc(O)c(O)c2)cc1 | 26.1%
CC(=O)Nc1ccc(/C=C2\OC(=O)C=C2c2ccccc2)cc1 | 92.2%
COc1ccc(C2=CC(=O)O/C2=C\c2ccccc2)cc1 | 29.7%
COc1cccc2c1C(=O)c1c(O)c3c(c(O)c1C2=O)C[C@@](O)(C(=O)CO)C[C@@H]3O[C@H]1C[C@H](N)[C@H](O)[C@H](C)O1 [DOXORUBICIN] | 5.8%
COc1ccc(C2=CC(=O)O/C2=C\c2ccc(C(C)(C)C)cc2)cc1 | 60.2%
COc1ccc(C2=CC(=O)O/C2=C\c2ccc3ccccc3c2)cc1 | 83.8%
O=C1C=C(c2ccccc2)/C(=C/c2ccc(C(=O)O)cc2)O1 | 87.3%
COc1ccc(C2=CC(=O)O/C2=C\c2ccc(NC(C)=O)cc2)cc1 | 30.4%
COc1ccc(/C=C2\OC(=O)C=C2c2ccc(OC)cc2)cc1 | 25.9%
O=C1C=C(c2ccccc2)/C(=C/c2ccc3[nH]ccc3c2)O1 | 60.2%
COc1ccc(C2=CC(=O)O/C2=C\c2ccc(Br)cc2)cc1 | 107%
Cc1ccc(/C=C2\OC(=O)C=C2c2ccccc2)cc1 | 87.4%
COc1cc(/C=C2\OC(=O)C=C2c2ccccc2)ccc1O | 102%

Tested on: U-87 MG
Experiment: Cytotoxicity against human U-87 MG cells assessed as inhibition of cell growth at 10 uM measured after 72 hrs by MTT assay relative to control
Type: functional, U-87MG ATCC
Settings: not given

Compound | inhibition at 10 µM
COc1ccc(C2=CC(=O)O/C2=C\c2ccc(O)c(O)c2)cc1 | > 50%
COc1ccc(C2=CC(=O)O/C2=C\c2ccccc2)cc1 | > 50%
COc1ccc(C2=CC(=O)O/C2=C\c2ccc(NC(C)=O)cc2)cc1 | > 50%
COc1ccc(/C=C2\OC(=O)C=C2c2ccc(OC)cc2)cc1 | > 50%

Tested on: HCT-116
Experiment: Cytotoxicity against human HCT-116 cells assessed as inhibition of cell growth at 10 uM measured after 72 hrs by MTT assay relative to control
Type: functional
Settings: not given

Compound | inhibition at 10 µM
COc1ccc(C2=CC(=O)O/C2=C\c2ccc(O)c(O)c2)cc1 | > 50%
COc1ccc(C2=CC(=O)O/C2=C\c2ccccc2)cc1 | > 50%
COc1ccc(C2=CC(=O)O/C2=C\c2ccc(NC(C)=O)cc2)cc1 | > 50%
COc1ccc(/C=C2\OC(=O)C=C2c2ccc(OC)cc2)cc1 | > 50%

Tested on: MGC-803
Experiment: Cytotoxicity against human MGC-803 cells assessed as inhibition of cell growth at 10 uM measured after 72 hrs by MTT assay relative to control
Type: functional
Settings: not given

Compound | inhibition at 10 µM
COc1ccc(C2=CC(=O)O/C2=C\c2ccc(O)c(O)c2)cc1 | > 50%
COc1ccc(C2=CC(=O)O/C2=C\c2ccccc2)cc1 | > 50%
COc1ccc(C2=CC(=O)O/C2=C\c2ccc(NC(C)=O)cc2)cc1 | > 50%
COc1ccc(/C=C2\OC(=O)C=C2c2ccc(OC)cc2)cc1 | > 50%

Tested on: MCF7
Experiment: Cytotoxicity against human MCF7 cells assessed as inhibition of cell growth at 10 uM measured after 72 hrs by MTT assay relative to control
Type: functional
Settings: not given

Compound | inhibition at 10 µM
COc1ccc(C2=CC(=O)O/C2=C\c2ccc(O)c(O)c2)cc1 | > 50%
COc1ccc(C2=CC(=O)O/C2=C\c2ccccc2)cc1 | > 50%
COc1ccc(C2=CC(=O)O/C2=C\c2ccc(NC(C)=O)cc2)cc1 | > 50%
COc1ccc(/C=C2\OC(=O)C=C2c2ccc(OC)cc2)cc1 | > 50%

Tested on: MKN-45
Experiment: Cytotoxicity against human MKN-45 cells assessed as inhibition of cell growth at 10 uM measured after 72 hrs by MTT assay relative to control
Type: functional
Settings: not given

Compound | inhibition at 10 µM
COc1ccc(C2=CC(=O)O/C2=C\c2ccc(O)c(O)c2)cc1 | > 50%
COc1ccc(C2=CC(=O)O/C2=C\c2ccccc2)cc1 | > 50%
COc1ccc(C2=CC(=O)O/C2=C\c2ccc(NC(C)=O)cc2)cc1 | > 50%
COc1ccc(/C=C2\OC(=O)C=C2c2ccc(OC)cc2)cc1 | > 50%

Tested on: HeLa
Experiment: Cytotoxicity against human HeLa cells assessed as inhibition of cell growth at 10 uM measured after 72 hrs by MTT assay relative to control
Type: functional
Settings: not given

Compound | inhibition at 10 µM
COc1ccc(C2=CC(=O)O/C2=C\c2ccc(O)c(O)c2)cc1 | > 50%
COc1ccc(C2=CC(=O)O/C2=C\c2ccccc2)cc1 | > 50%
COc1ccc(C2=CC(=O)O/C2=C\c2ccc(NC(C)=O)cc2)cc1 | > 50%
COc1ccc(/C=C2\OC(=O)C=C2c2ccc(OC)cc2)cc1 | > 50%

Tested on: HeLa
Experiment: Cytotoxicity against human HeLa cells assessed as inhibition of cell growth incubated for 72 hrs by MTT assay
Type: functional, cell-based
Settings: not given

Compound | pIC50
COc1ccc(C2=CC(=O)O/C2=C\c2ccc(O)c(O)c2)cc1 | 5.89
COc1ccc(C2=CC(=O)O/C2=C\c2ccccc2)cc1 | 5.74
COc1cccc2c1C(=O)c1c(O)c3c(c(O)c1C2=O)C[C@@](O)(C(=O)CO)C[C@@H]3O[C@H]1C[C@H](N)[C@H](O)[C@H](C)O1 [DOXORUBICIN] | 6.70
COc1ccc(C2=CC(=O)O/C2=C\c2ccc(NC(C)=O)cc2)cc1 | 6.15
COc1ccc(/C=C2\OC(=O)C=C2c2ccc(OC)cc2)cc1 | 5.66

Tested on: HCT-116
Experiment: Cytotoxicity against human HCT-116 cells assessed as inhibition of cell growth incubated for 72 hrs by MTT assay
Type: functional, cell-based
Settings: HCT-116, 72 h

Compound | pIC50
COc1ccc(C2=CC(=O)O/C2=C\c2ccc(O)c(O)c2)cc1 | 5.47
COc1ccc(C2=CC(=O)O/C2=C\c2ccccc2)cc1 | 5.72
COc1cccc2c1C(=O)c1c(O)c3c(c(O)c1C2=O)C[C@@](O)(C(=O)CO)C[C@@H]3O[C@H]1C[C@H](N)[C@H](O)[C@H](C)O1 [DOXORUBICIN] | 6.70
COc1ccc(C2=CC(=O)O/C2=C\c2ccc(NC(C)=O)cc2)cc1 | 5.66
COc1ccc(/C=C2\OC(=O)C=C2c2ccc(OC)cc2)cc1 | 5.43

Tested on: MGC-803
Experiment: Cytotoxicity against human MGC-803 cells assessed as inhibition of cell growth incubated for 72 hrs by MTT assay
Type: functional, cell-based
Settings: MGC-803, 72 h

Compound | pIC50
COc1ccc(C2=CC(=O)O/C2=C\c2ccc(O)c(O)c2)cc1 | 5.06
COc1ccc(C2=CC(=O)O/C2=C\c2ccccc2)cc1 | 5.30
COc1cccc2c1C(=O)c1c(O)c3c(c(O)c1C2=O)C[C@@](O)(C(=O)CO)C[C@@H]3O[C@H]1C[C@H](N)[C@H](O)[C@H](C)O1 [DOXORUBICIN] | 6.52
COc1ccc(C2=CC(=O)O/C2=C\c2ccc(NC(C)=O)cc2)cc1 | 5.52
COc1ccc(/C=C2\OC(=O)C=C2c2ccc(OC)cc2)cc1 | 5.21

Tested on: MCF7
Experiment: Cytotoxicity against human MCF7 cells assessed as inhibition of cell growth incubated for 72 hrs by MTT assay
Type: functional, cell-based
Settings: MCF7, 72 h

Compound | pIC50
COc1ccc(C2=CC(=O)O/C2=C\c2ccc(O)c(O)c2)cc1 | 5.60
COc1ccc(C2=CC(=O)O/C2=C\c2ccccc2)cc1 | 5.92
COc1ccc(C2=CC(=O)O/C2=C\c2ccc(NC(C)=O)cc2)cc1 | 5.21
COc1ccc(/C=C2\OC(=O)C=C2c2ccc(OC)cc2)cc1 | 5.37

Tested on: U-87 MG
Experiment: Cytotoxicity against human U-87 MG cells assessed as inhibition of cell growth incubated for 72 hrs by MTT assay
Type: functional, cell-based, U-87MG ATCC
Settings: not given

Compound | pIC50
COc1ccc(C2=CC(=O)O/C2=C\c2ccc(O)c(O)c2)cc1 | 4.62
COc1ccc(C2=CC(=O)O/C2=C\c2ccccc2)cc1 | 4.86
COc1cccc2c1C(=O)c1c(O)c3c(c(O)c1C2=O)C[C@@](O)(C(=O)CO)C[C@@H]3O[C@H]1C[C@H](N)[C@H](O)[C@H](C)O1 [DOXORUBICIN] | 6.52
COc1ccc(C2=CC(=O)O/C2=C\c2ccc(NC(C)=O)cc2)cc1 | 5.60
COc1ccc(/C=C2\OC(=O)C=C2c2ccc(OC)cc2)cc1 | 4.92

Tested on: MKN-45
Experiment: Cytotoxicity against human MKN-45 cells assessed as inhibition of cell growth incubated for 72 hrs by MTT assay
Type: functional, cell-based
Settings: MKN-45, 72 h

Compound | pIC50
COc1ccc(C2=CC(=O)O/C2=C\c2ccc(O)c(O)c2)cc1 | 5.55
COc1ccc(C2=CC(=O)O/C2=C\c2ccccc2)cc1 | 6.00
COc1cccc2c1C(=O)c1c(O)c3c(c(O)c1C2=O)C[C@@](O)(C(=O)CO)C[C@@H]3O[C@H]1C[C@H](N)[C@H](O)[C@H](C)O1 [DOXORUBICIN] | 6.70
COc1ccc(C2=CC(=O)O/C2=C\c2ccc(NC(C)=O)cc2)cc1 | 6.00
COc1ccc(/C=C2\OC(=O)C=C2c2ccc(OC)cc2)cc1 | 5.28

Tested on: not listed separately
Experiment: Cytotoxicity against HHL-5 cells assessed as inhibition of cell growth incubated for 72 hrs by MTT assay
Type: toxicity, cell-based
Settings: human

Compound | IC50 at 72 h
COc1ccc(C2=CC(=O)O/C2=C\c2ccc(O)c(O)c2)cc1 | 11300 nM
COc1ccc(C2=CC(=O)O/C2=C\c2ccccc2)cc1 | 1600 nM
COc1cccc2c1C(=O)c1c(O)c3c(c(O)c1C2=O)C[C@@](O)(C(=O)CO)C[C@@H]3O[C@H]1C[C@H](N)[C@H](O)[C@H](C)O1 [DOXORUBICIN] | 7200 nM
COc1ccc(C2=CC(=O)O/C2=C\c2ccc(NC(C)=O)cc2)cc1 | 5500 nM
COc1ccc(/C=C2\OC(=O)C=C2c2ccc(OC)cc2)cc1 | 3900 nM
